system: HEK293 cell lysates after 5 minutes serum stimulation; assay: Tagged substrates array: in vitro protein kinase reaction of the tagged peptide mix with cell lysate, sorted on tag array, anti-pTyr immunostaining; assay type: biochemical; settings: Hundred micrograms of total cell lysate, 30 minutes at 37 degree Celsius; anti-pTyr monoclonal antibody mix, Cy5 secondary, GenePix scanner
Experimental: EDC/NHS combined cross-linking was performed to tag the peptide or substrate which needs to be sorted. Coupling buffer contains no Tris and no phosphate. Peptides and oligonucleotides in equimolar ratios [50 μg/ml in 10 mM sodium acetate buffer (pH 5.0)] were reacted with a 1:1 mixture of N-hydroxysuccinimide NHS and 1 -ethyl-3 -(3 -dimethylaminopropyl) carbodiimide EDC for 2 hours. The excess active groups were then blocked with 1 M ethanolamine (pH 8.5).
Peptides. Phosphotyrosine-containing and non-phosphorylated peptides were synthesized, HPLC purified and checked by mass spectroscopy. Peptides were stored under nitrogen at -80 degree. Celsius. The synthesized peptides were as following, phosphotyrosine, AEPDpYGALYE PLCgamma, SAAPpYLKTK Stat3-705, DDPSpYVNVQ SHC-317, PDHQpYYNDF SHC-239, TDDGpYMPMS IRS 1-608, GNGDpYMPMS IRS 1-628, SPGEpYVNIE IRS 1-895, KSLNpYIDLD IRS 1-1172, DLSTpYASIN IRS1-1222; non-phosphorylated, AEPDYGALYE, SAAPYLKTK, DDPSYVNVQ and PDHQYYNDF SHC, KDGATMKTF Akt, RGRSRSAPPN BAD, GEGTYGVVYK p34cdc2, GAGTPAATDEK, DGFVLTRLLE beta spectrin, NSIMKCDIDI Gamma actin, PGIADRMQKE beta actin.
Amino modified oligonucleotides used as tags. The amino modifications can be used either for slides coupling or for peptide coupling, or for coupling to any reactive substrates which needs to be sorted onto the array. Oligonucleotides are chosen with similar Tm and hybridization properties. Oligonucleotides can be substituted by any pair of complementary nucleic acids or PNAs without affecting the sensitivity or completeness of the assay. The length and sequence of the nucleic acids or PNAs is also not important as long as strands complementarity results in hibridization specificity. Here it is described a test experiment with 18 pairs of oligonucleotides. […]
Slide Overlay. […] After triple washing in TBST, and then TBS, fluorescent complexes are detected by using a GenePix microarrays scanner. […]

Row | Sequence | phosphorylation of sorted tagged substrate (FIG. 10)
1 | PDHQYYNDF [Substrate S4] | strongly phosphorylated
2 | SAAPYLKTK [Substrate S2] | moderately well phosphorylated
3 | AEPDYGALYE [Substrate S1] | moderately well phosphorylated
